We go through 23 compounds from PMC3715451, “Roles for Ordered and Bulk Solvent in Ligand Recognition and Docking in Two Related Cavities” (PLoS ONE, 2013).

“Also recorded” adds a separate entry of the source. Like-named read-outs stand apart in the source and are kept apart here.

Assay [1] concerns the target T1, Cytochrome c Peroxidase Gateless cavity (P190G/W191G/Δ192-3) (Saccharomyces cerevisiae, UniProt P00431, A260G/D219G/DEL257-258/P257G/T120I/W258G).
T1 construct: made in house
Put plainly: Binding to the CcP Gateless cavity by titration of the UV-Vis Heme Soret band (or ITC). The settings on record: for Binding by UV-Vis: neutral docking hits, at up to 1 mM concentration. As for the experimental part:
(§1) Our first interest was to investigate the effect of opening the cavity to bulk solvent. Six known ligands of the buried W191G cavity were tested for binding to the Gateless cavity (P190G/W191G/Δ192-3) by UV-Vis titration or by Isothermal Titration Calorimetry (ITC) ( Figure 2 , Table S1 and Figure S1).
(§2) The compounds were tested for binding by measuring perturbation of the Heme Soret band at 10°C in 100 mM citrate buffer at pH 4.5 or 500 mM MES buffer pH 6.0 [27], [73]. To avoid competition with small cations like potassium, the pH of both buffer conditions was adjusted with Bis-Tris-Propane. Stock solutions were made up in DMSO and diluted into assay buffer to derive KD values in titration curves. KD values were obtained by fitting the difference absorbance of the Heme Soret band to a one-site binding hyperbola in GraphPad Prism (GraphPad Software, Inc.).
(§3) Experiments were performed as described. Assays were performed at 10°C in 100 mM citrate buffer at pH 4.5. Ligand stocks were prepared in buffer from overnight dialysis of the protein to prevent buffer mismatch.

For assay [2], the system named is Cytochrome c Peroxidase Gateless cavity (P190G/W191G/Δ192-3). The description is as above. The settings on record: for loss in affinity going from W191G to Gateless: ratio of KD Gateless / W191G; for improvement in affinity in Gateless versus closed W191G: ratio of KD W191G / Gateless. As for the experimental part:
as §1, §2, §3

The next assay has as its target T2, CcP Gateless (Saccharomyces cerevisiae, UniProt P00431, A260G/D219G/DEL257-258/P257G/T120I/W258G).
T2 construct: made in house
The assay is described as follows: Low C-value Isothermal Titration Calorimetry against CcP Gateless. It counts as binding. The settings on record: ITC, 283K; † approximate value from partial ITC curves. As for the experimental part:
as §3
Table S1. ITC data (ΔG, ΔH and ΔS): binding of compounds 1, 2, 3, 4 and 6 to CcP Gateless at 283K.
In general terms: ITC needs no label: the signal is the heat of the interaction.

The target of assay [3] is Cytochrome c Peroxidase W191G cavity. The settings on record: closed W191G cavity, cited from earlier work.
Where [4] appears, read: six known W191G ligands, UV-Vis titration or ITC, † = approximate KD by endpoint UV-Vis assay or partial ITC curves, limited by solubility, read-out: KD Gateless.
The mark [5] stands for this setting: known ligands of W191G, reference not given, read-out: KD W191G.
Setting [6] is: compounds selected from the SEV docking screen, CcP Gateless cavity, UV-Vis Heme Soret band titration, read-out: KD.

T2 sequence (P00431 other isoform, or with tags, fused parts or gaps T120I/D219G/DEL257-258/A260G): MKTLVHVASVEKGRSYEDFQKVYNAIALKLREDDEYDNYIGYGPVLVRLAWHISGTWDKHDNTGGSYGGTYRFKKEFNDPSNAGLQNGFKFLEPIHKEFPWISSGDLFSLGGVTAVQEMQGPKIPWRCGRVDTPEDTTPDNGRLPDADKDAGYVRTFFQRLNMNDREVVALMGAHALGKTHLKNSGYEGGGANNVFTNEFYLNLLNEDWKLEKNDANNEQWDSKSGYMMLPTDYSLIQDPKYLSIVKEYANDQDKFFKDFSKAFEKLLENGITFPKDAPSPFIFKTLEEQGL
T1 sequence (P00431 other isoform, or with tags, fused parts or gaps T120I/D219G/DEL257-258/A260G): as above

With `C[n+]1cccc(N)c1` [Compound 4, 3-amino-1-methylpyridinium], in assay [1] (setting [4]), the Kd is ~3000 µM. In addition, the “loss in affinity going from W191G to Gateless” value (“loss in affinity going” below) in assay [2] was determined as 6 fold. Moreover, at CcP Gateless, the TΔS is recorded as ~-3.6† kcal/mol, the ΔG is ~-3.6† kcal/mol and the ΔH is recorded as ~-7.2† kcal/mol. Further, the Kd in assay [3] (setting [5]) is 500 µM.

On to `COc1ccc(Nc2cc(C)nc(N)n2)cc1` [Compound 16], for which the Kd in assay [1] (setting [6]) came out at 17 µM.

For the compound `Nc1ncc(C=O)c(N)n1` [Compound 23], the KD result in assay [1] (compounds selected from the SEV docking screen, CcP Gateless cavity, UV-Vis Heme Soret band titration) was “Non Binder”.

For `Oc1cccc(F)c1O` [Compound 6, 3-fluorocatechol], the Kd in assay [1] (open Gateless cavity, read-out: affinity in Gateless) was 3100 µM; in assay [1] (setting [4]), ~3100 µM; in assay [3] (no reference given, read-out: affinity in W191G), 7700 µM. Also, the “improvement in affinity in Gateless versus closed W191G” value in assay [2] came to 2 fold. Also, on CcP Gateless, the ΔG is reported as ~-3.2† kcal/mol. In addition, the ΔH at CcP Gateless is ~-1.0† kcal/mol.

Consider `OCc1cnc2cc[nH]c2c1` [Compound 17, (1H-Pyrrolo[3,2-b]pyridin-6-yl)methanol], for which the Kd in assay [1] (setting [6]) was 982 µM.

As to `Nc1cccc2nccn12` [Compound 14, imidazo[1,2-a]pyridin-5-amine], the Kd in assay [1] (setting [6]) is 14 µM.

On to `Nc1cccc(N)n1` [Compound 3, 2,6-diaminopyridine], for which the Kd in assay [1] (setting [4]) amounted to 38 µM. Further, in assay [2], the “improvement in affinity in Gateless versus closed W191G” value is given as “about 1.5 fold”. Further, at CcP Gateless, the TΔS is reported as -3.31 kcal/mol, the ΔG is on record as -5.73 kcal/mol and the ΔH was -9.04 kcal/mol. For the same compound, in assay [3] (setting [5]), the Kd was 60 µM.

For the compound `O=C(/C=C/c1ccc(F)cc1)c1ccco1` [Compound 7], the “Binding by UV-Vis” value in assay [1] is “none showed measurable affinity; also recorded: No binding”.

`Nc1ccnc(N)n1` [Compound 2, 2,4-diaminopyrimidine]: in assay [1] (setting [4]), the Kd was found to be 389 µM. Moreover, the “loss in affinity going” value in assay [2] was found to be 8 fold. For the same compound, on CcP Gateless, the TΔS is given as -1.14 kcal/mol, the ΔG is recorded as -4.42 kcal/mol and the ΔH is reported as -5.56 kcal/mol. Also, the Kd in assay [3] (setting [5]) is 50 µM.

With `Cn1ccnc1Sc1ccccc1N` [Compound 15], in assay [1] (setting [6]), the Kd worked out at 203 µM.

For the compound `Cc1cc(N)n(-c2ccccc2[N+](=O)[O-])n1` [Compound 18], in assay [1] (setting [6]), the Kd came out at 823 µM.

Regarding `Nc1ccc2nccn2c1` [Compound 20, Imidazo[1,2-a]pyridin-6-amine], the Kd in assay [1] (setting [6]) worked out at 290 µM.

As for `O=Cc1cnc2cc[nH]c2c1` [Compound 24, 1H-Pyrrolo[3,2-b] pyridine-6-carbaldehyde], the Kd in assay [1] (setting [6]) was > 2000 µM.

For the compound `Nc1c([N+](=O)[O-])cnc2ccccc12` [Compound 13], the Kd in assay [1] (setting [6]) amounted to 8 µM.

Turning to `C[C@@H](O)CNc1ncnc2ccccc12` [Compound 19], the Kd in assay [1] (setting [6]) was found to be 37 µM.

Consider `Nc1c(Br)cnc2ccccc12` [Compound 11], for which, in assay [1] (setting [6]), the Kd came to 19 µM.

On to `O=C(Oc1cccc([N+](=O)[O-])c1)c1ccncc1` [Compound 9], for which the “Binding by UV-Vis” value in assay [1] is “none showed measurable affinity; also recorded: No binding”.

On to `Cc1cn2cccc(O)c2n1` [Compound 21], for which, in assay [1] (setting [6]), the Kd is 16 µM.

Turning to `CNc1nc2ccccc2[nH]1` [Compound 22, N-methyl-1H-1,3-benzodiazol-2-amine], in assay [1] (setting [6]), the Kd worked out at 288 µM.

On to `Nc1c2c(nc3sccc13)CCCC2` [Compound 10, 5,6,7,8-tetrahydrothieno[2,3-b]quinolin-4-amine], for which, in assay [1] (setting [6]), the Kd is 64 µM.

In the case of `O=C(Oc1ccccc1)c1ccc2n[nH]nc2c1` [Compound 8], the “Binding by UV-Vis” value in assay [1] is “none showed measurable affinity; also recorded: No binding”.

Regarding `Oc1ccccc1` [Compound 5, Phenol], the “change of affinity between the two cavities” value in assay [2] (W191G versus Gateless) is recorded as “almost unchanged”. Further, the Kd in assay [3] (setting [5]) is 4100 µM.

`Cc1cnc(N)s1` [Compound 1, 2-amino-5-methylthiazole]: the Kd in assay [1] (setting [4]) came to 95 µM. For the same compound, the “loss in affinity going” value in assay [2] is given as 16 fold. On CcP Gateless, the TΔS is 0.21 kcal/mol, the ΔG was -5.21 kcal/mol and the ΔH was -5.00 kcal/mol. The Kd in assay [3] (setting [5]) is 6 µM.
